Active and inactive are the calls of the source. The calls are words filed in the database; no cut-off is given here.
Tests used:
[1] = target: T1, Lysine-specific demethylase 4E (Homo sapiens) (UniProt B2RXH2); assay: Inhibition of purified recombinant KDM4E (1 to 347 aa) (unknown origin) expressed in Escherichia coli using H3K9me3 peptide as substrate after 30 mins by FDH-coupled assay
T1 sequence (whole entry): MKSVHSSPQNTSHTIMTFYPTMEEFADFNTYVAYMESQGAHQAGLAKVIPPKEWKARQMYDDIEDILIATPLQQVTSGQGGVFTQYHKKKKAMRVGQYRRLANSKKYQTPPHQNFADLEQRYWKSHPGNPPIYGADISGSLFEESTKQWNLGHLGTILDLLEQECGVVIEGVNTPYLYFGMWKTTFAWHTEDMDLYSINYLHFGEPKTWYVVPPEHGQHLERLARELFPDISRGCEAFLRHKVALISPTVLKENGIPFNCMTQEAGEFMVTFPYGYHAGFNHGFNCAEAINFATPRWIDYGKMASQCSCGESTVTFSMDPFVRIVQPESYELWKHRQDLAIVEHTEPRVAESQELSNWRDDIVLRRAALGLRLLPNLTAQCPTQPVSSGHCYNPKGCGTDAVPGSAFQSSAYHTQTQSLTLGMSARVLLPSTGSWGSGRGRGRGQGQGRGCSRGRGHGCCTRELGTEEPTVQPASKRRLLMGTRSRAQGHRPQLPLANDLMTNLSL

[2] = target: T2, Lysine-specific demethylase 4D (Homo sapiens) (UniProt Q6B0I6); assay: Inhibition of purified recombinant KDM4D (1 to 350 aa) (unknown origin) expressed in Escherichia coli using H3K9me3 peptide as substrate after 30 mins by FDH-coupled assay
T2 sequence (whole entry): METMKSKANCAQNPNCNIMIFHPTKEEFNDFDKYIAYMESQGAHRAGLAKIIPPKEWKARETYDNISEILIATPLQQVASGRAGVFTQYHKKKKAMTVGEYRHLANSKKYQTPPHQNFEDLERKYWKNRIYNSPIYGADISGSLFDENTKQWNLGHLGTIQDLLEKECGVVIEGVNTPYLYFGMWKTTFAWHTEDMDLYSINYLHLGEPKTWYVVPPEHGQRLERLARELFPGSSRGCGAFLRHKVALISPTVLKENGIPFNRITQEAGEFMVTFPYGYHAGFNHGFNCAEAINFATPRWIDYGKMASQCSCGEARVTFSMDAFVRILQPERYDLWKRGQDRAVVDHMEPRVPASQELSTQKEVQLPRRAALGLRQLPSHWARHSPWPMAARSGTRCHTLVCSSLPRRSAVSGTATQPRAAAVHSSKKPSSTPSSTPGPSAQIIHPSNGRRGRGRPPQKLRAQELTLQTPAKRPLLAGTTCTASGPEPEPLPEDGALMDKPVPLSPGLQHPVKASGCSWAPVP

LNCaP = assay: Cytotoxicity against human LNCAP cells after 3 days by MTT assay; type: functional, cell-based; settings: 72 h
[3] = Cytotoxicity against human PNT2 cells at 5 to 20 uM measured over 6 days by MTT assay; type: cell-based; settings: pnt2, 144 h

SMILES | inhibition [1] | inhibition [2] | CC50 (LNCaP) | Activity [3]
O=C(O)c1ccnc(C(=O)O)c1 | Active | Active | 589 µM | –
O=[N+]([O-])c1cc([N+](=O)[O-])c(/C=C/c2ccc(Cl)c(Cl)c2)cc1/C=C/c1ccc(Cl)c(Cl)c1 | inactive | inactive | – | Non-toxic

— ChEMBL document CHEMBL3352546, “KDM4B as a target for prostate cancer: structural analysis and selective inhibition by a novel inhibitor” (J Med Chem, 2014)
